The text below walks through data of article PMC10421376, “Simultaneous Determination of Five Iridoids of Picrorhiza scrophulariiflora in Rat Plasma Using UHPLC-ESI-MS/MS” (Molecules, 2023).

Read-outs that look alike come from different tables or passages of the source.

A short description of series [1]: Pharmacokinetics of five iridoids in rat plasma after oral administration of PS extract (UHPLC-ESI-MS/MS). It is filed as in vivo, SD (Sprague Dawley) rats. How it is done: Six adult male SD (Sprague Dawley) rats (220–250 g) were purchased from the Animal Experiment Center of Heilongjiang University of Chinese Medicine. The Animal Ethics Committee of Harbin Medical University approved the experimental protocol, which conformed to the principles for the Care and Use of Laboratory Animals. The experimental animals were fed under the following conditions: room temperature (20–25 °C), relative humidity (40–60%), 12 h of alternating day and night lighting, 12 h of fasting before the experiment, and free access to water. We calculated the dosage of SD rats using the standardized formula for body surface area (BSA). According to the Chinese Pharmacopoeia, the dosage of PS raw medicine for human use is 10 g. The dosage for rats is 0.9 g/kg.
The dried PS powder weighed 200 g and was extracted with eight times the amount of 75% ethanol at reflux three times for 2 h each time. The extracts were combined, filtered, distilled under reduced pressure until the alcoholic taste disappeared, and lyophilized with water. In our previous laboratory experiments, we used HPLC to determine the content of five analytes, namely Picroside-I (15.68 mg/g), Picroside-II (103.64 mg/g), Picroside-III (64.08 mg/g), minecoside (2.02 mg/g), and sweroside (12.28 mg/g). After freeze-drying, we dissolved the solid in a 5% sodium carboxymethyl cellulose solution and prepared a medicinal extract solution with a concentration of 0.3 g/mL.
A dose of 1 g/kg of body weight was administered to rats according to the pharmacopoeia and previous content results for the five analytes. Rat tail vein blood samples were collected in heparinized tubes before and 0.167, 0.333, 0.5, 0.75, 1, 2, 4, 6, 8, and 12 h after administration and centrifuged at 3500 rpm for 10 min. We obtained 100 µL of the upper layer of plasma and stored it at −20 °C for measurement.
The plasma samples were treated according to the method described in Section 3.3. The plasma samples were determined according to the chromatographic conditions described in Section 3.4 and chromatograms were recorded. The measured peak area ratios of the substances being measured and the IS were substituted into the accompanying standard curves on the same day. We also calculated the blood concentrations of Picroside-I (15.68 mg/g), Picroside-II (103.64 mg/g), Picroside-III (64.08 mg/g), minecoside (2.02 mg/g), and sweroside (12.28 mg/g), respectively. We determined the QC samples at the same time, allowing a maximum of two different concentrations of QC samples to exceed the theoretical value of ±15% of the RE% value.
The peak areas of Picroside-I, Picroside-II, Picroside-III, minecoside, sweroside, and IS in each sample were recorded. We calculated and substituted their ratios into the standard curve equation to obtain corresponding concentrations for the five substances being measured in the plasma of SD rats. The blood concentration data of each rat were processed separately to calculate the relevant pharmacokinetic parameters, and the mean and standard deviation of the parameters were further calculated. We calculated and plotted pharmacokinetic parameters including concentration–time curves (AUC0–t, AUC0–∞), average residence time (MRT), maximum plasma concentration (Cmax), time to reach the maximum concentration (Tmax), and half-time (t1/2) using pharmacokinetic software (DAS 2.0) with a non-atrial chamber model for blood concentration–time curves. All parameters were expressed as mean ± SD.

The subject of the next series is H9c2. Particulars: cardiac cell line H9c2; cited from earlier work.
Details of series [2]: method as in PMID 27498779. To be noted: mice, bile stasis-induced liver injury; cited from earlier work.
The test system of a further series is hyaluronidase. Particulars: cited from earlier work.
The next series has as its system CXCR4. Also noted: method as in PMID 32016931. Particulars: breast cancer cells; cited from earlier work.
A short description of series [3]: Stability of the analytes in rat plasma QC samples under storage and processing conditions. The series is classed as in vitro ADME. To be noted: n = 6; for Short-Term Stability RE: room temperature 4 h; for Freeze-Thaw RE: three freeze-thaw cycles −20 °C/room temperature; for Long-Term Stability RE: −20 °C two weeks. How it is done:
Stability refers to the chemical stability of the sample being tested in a given medium under certain external conditions. We obtained 100 µL of rat blank plasma and prepared low, medium, and high concentrations of the QC sample standard solutions, Picroside-I, Picroside-II, Picroside-III, minecoside, and sweroside, according to the method described in Section 3.3. As simulated biological samples, the following conditions were investigated: (1) Short-term stability (QC samples were left at room temperature for 4 h, which exceeded the sample preparation time); (2) long-term stability (QC samples were left at −20 °C for two weeks); (3) freeze-thaw stability (three freeze-thaw cycles at −20 °C/room temperature) and post-preparation stability (QC samples were left in a 4 °C auto sampling chamber for 24 h).

Where [4] appears, read: rat plasma, oral PS extract 1 g/kg, n = 6, mean ± SD.
Where [5] appears, read: male, Sprague-Dawley, rat, in vivo, po, 1 g/kg.

For orientation: Cmax means the maximum level reached in the sampled fluid or tissue. As a reminder, the Tmax is the time from dosing to the highest level. With `C=C[C@H]1[C@H](O[C@@H]2O[C@H](CO)[C@@H](O)[C@H](O)[C@H]2O)OC=C2C(=O)OCC[C@H]21` [Sweroside, sweroside], the AUC(0-t) in series [1] (male, Sprague-Dawley, in vivo, rat plasma, oral PS extract 1 g/kg, n = 6, mean ± SD, read-out: AUC0–t) was found to be 261 ± 65.3 ng·h/mL. Also, in series [1] (male, Sprague-Dawley, in vivo, rat plasma, oral PS extract 1 g/kg, n = 6, mean ± SD, read-out: AUC0–∞), the AUC(0-inf) is 268 ± 70.8 ng·h/mL. Moreover, in series [1] (male, Sprague-Dawley, in vivo, rat plasma, oral PS extract 1 g/kg, n = 6, mean ± SD, read-out: Cmax), the maximum concentration (Cmax) worked out at 63.7 ± 17.6 ng/mL. Besides, the MRT last in series [1] (male, Sprague-Dawley, in vivo, rat plasma, oral PS extract 1 g/kg, n = 6, mean ± SD, read-out: MRT0–t) was 3.9 ± 0.3 h. Besides, in series [1] (male, Sprague-Dawley, in vivo, rat plasma, oral PS extract 1 g/kg, n = 6, mean ± SD, read-out: Tmax), the Tmax was determined as 2.1 ± 0.1 h. Also, in series [1] (male, Sprague-Dawley, in vivo, rat plasma, oral PS extract 1 g/kg, n = 6, mean ± SD, read-out: t1/2 (converted)), the half-life is 72 ± 18 min. In series [1] (setting [4]), this compound gave a Cl of 120.9 ± 36.95 L/h/kg and a Vd of 785.1 ± 130.6 L/kg. The “Effect on aconitine toxicity to myoblasts” value in the series on H9c2 is “reduce aconitine’s toxicity”. Also, the “Effect on pro-inflammatory responses and bile acid levels” value in series [2] is “improves pro-inflammatory responses and bile acid levels”.

With `COc1ccc(/C=C/C(=O)O[C@H]2[C@@H]3C=CO[C@@H](O[C@@H]4O[C@H](CO)[C@@H](O)[C@H](O)[C@H]4O)[C@@H]3[C@@]3(CO)O[C@@H]23)cc1O` [Minecoside, minecoside], in series [1] (setting [5]), the AUC(0-inf) came to 93.5 ± 22.6 ng·h/mL, the AUC(0-t) came to 78.9 ± 10.2 ng·h/mL, the Cl turned out to be 7.148 ± 2.382 L/h/kg and the Cmax amounted to 21.1 ± 7.8 ng/mL. Moreover, in series [1] (setting [5]), the MRT last turned out to be 4.1 ± 0.7 h, the Tmax amounted to 1 ± 0.2 h, the Vd stood at 19.26 ± 4.77 L/kg and the half-life is 300 ± 138 min. For the same compound, the Hyaluronidase inhibitory activity result in the series on hyaluronidase is listed as “hyaluronidase inhibitory activity”. In addition, the “Effect on CXCR4 expression” value in the series with CXCR4 is listed as “inhibits the expression of CXCR4”.

In the case of `COc1cc(C(=O)O[C@H]2[C@@H]3C=CO[C@@H](O[C@@H]4O[C@H](CO)[C@@H](O)[C@H](O)[C@H]4O)[C@@H]3[C@@]3(CO)O[C@@H]23)ccc1O` [Picroside-II], in series [1] (male, Sprague-Dawley, rat, in vivo, po), the AUC(0-t) amounted to 604 ± 239 ng·h/mL. Moreover, in series [1] (setting [5]), the AUC(0-inf) came out at 611 ± 246 ng·h/mL, the AUC(0-t) was determined as 604 ± 239 ng·h/mL, the Cl came out at 172.40 ± 59.96 L/h/kg and the Cmax turned out to be 336 ± 92.3 ng/mL. Besides, in series [1] (setting [5]), the MRT last was determined as 2.3 ± 0.5 h, the Tmax was 1.1 ± 0.1 h, the Vd stood at 796 ± 503.5 L/kg and the half-life was 138 ± 90 min. In series [3] (high QC), the “Short-Term Stability RE” value was determined as 4.47%, the “Freeze-Thaw RE” value is on record as −1.47% and the “Long-Term Stability RE” value is on record as −2.19%. Besides, in series [3] (low QC), the “Short-Term Stability RE” value is given as −4.99%, the “Freeze-Thaw RE” value came out at 7.08% and the “Long-Term Stability RE” value stood at 8.69%. In series [3] (medium QC), the “Short-Term Stability RE” value was found to be 8.53%, the “Freeze-Thaw RE” value was −7.21% and the “Long-Term Stability RE” value is reported as 1.37%.

Take `O=C(/C=C/c1ccccc1)OC[C@H]1O[C@@H](O[C@@H]2OC=C[C@H]3[C@H](O)[C@@H]4O[C@]4(CO)[C@@H]23)[C@H](O)[C@@H](O)[C@@H]1O` [Picroside-I]: in series [1] (setting [5]), the AUC(0-inf) amounted to 382 ± 29.4 ng·h/mL, the AUC(0-t) amounted to 361 ± 25.6 ng·h/mL, the Cl is given as 36.43 ± 17.436 L/h/kg and the Cmax is 114 ± 16.1 ng/mL. In series [1] (setting [5]), the MRT last was determined as 3.6 ± 0.2 h, the Tmax was found to be 1.1 ± 0.2 h, the Vd is recorded as 186.7 ± 17.436 L/kg and the half-life was 144 ± 18 min. For the same compound, in series [3] (high QC), the “Short-Term Stability RE” value is 6.58%, the “Freeze-Thaw RE” value is reported as −1.94% and the “Long-Term Stability RE” value was 3.59%. Further, in series [3] (low QC), the “Short-Term Stability RE” value is 8.93%, the “Freeze-Thaw RE” value is recorded as 6.43% and the “Long-Term Stability RE” value amounted to 5.60%. In series [3] (medium QC), the “Short-Term Stability RE” value is 3.83%, the “Freeze-Thaw RE” value is given as −2.74% and the “Long-Term Stability RE” value is reported as −5.69%.
